{
  "source": "patent US12552747B2",
  "about": "“Amino acid derivative containing non-steroidal anti-inflammatory drug structure and preparation method and application thereof” (priority 2020, dated 2026)",
  "key": {"Melanoma B16 cells": {"test_system": "Melanoma B16 cells", "test": "In vitro antitumor activity test (MTT), B16", "type": "cell-based", "conditions": "24 h", "protocol": "(§1) 13 human tumor cell lines were selected and cultured in RPMI-1640 medium (Gibco company) containing 10% inactivated fetal bovine serum, 100 U/ml penicillin and 100 U/ml streptomycin, cultured at 37° C. in a 5% CO2 incubator, and passaged once every 2 days. Using the MTT method, cells in the logarithmic growth phase were digested with 0.25% trypsin, centrifuged at 1000 r/min for 5 min, 8×10^3 cells were added to each well, and seeded in a 96-well plate, and 180 μl of cell suspension was added to each well, and a blank was set at the same time. The 96-well plate inoculated with tumor cells was placed in a carbon dioxide incubator for 24 hours, and then 20 μl of the drug was added, and an equal volume of culture medium was added to the blank control well, and the drug was divided into 8 concentrations from 50 μg/L to 0.4 μg/L. Three duplicate wells were set for each drug concentration and placed in an incubator for 24 h. 10 μl of MTT solution (5 mg/ml) was added to each well, and the culture was continued for 4 h. The supernatant was aspirated and discarded, 100 μl of dimethyl sulfoxide (DMSO) solution was added to each well, placed on a micro shaker for 10 min, and the absorbance (A value) was measured at a wavelength of 492 nm in a microplate reader, and the inhibition rate of the drug on tumor cells was calculated according to the following formula.\n(§2) In this test, the IC50 value of the compound on tumor cells was calculated by the Origin software according to the inhibition rate of the compound. AC-201 in the following table was the abbreviation of PL-AC-201, and so on."}, "[1]": {"test_system": "Liver cancer SK-hep1 cells", "test": "In vitro antitumor activity test (MTT), SK-hep1", "type": "cell-based", "conditions": "Homo sapiens, 24 h", "protocol": "as §1, §2"}, "Colon cancer HT29 cells": {"test_system": "Colon cancer HT29 cells", "test": "In vitro antitumor activity test (MTT), HT29", "type": "cell-based", "conditions": "Homo sapiens, HT-29, 24 h", "protocol": "as §1, §2"}, "SK-hep1 liver tumors": {"test_system": "SK-hep1 liver tumors", "test": "Transplanted tumor in nude mice, intraperitoneal, SK-hep1", "type": "in vivo, BALB/c nude mice", "conditions": "8 administrations", "protocol": "(§3) BALB/c nude mice were used to inoculate Bel-7402, HepG-2 and SK-hep1 liver tumors according to the transplanted tumor research method under aseptic operation, and the cell density was not less than 5×10^6/ml, 0.2 ml was inoculated subcutaneously in the axilla of the right hind limb of each mouse. After the cells were inoculated, the cells were administered intraperitoneally (concentration: 5 mg/kg), once every 3 days, for a total of 8 administrations. After the 2nd day of drug withdrawal, all tumor-bearing mice were sacrificed, and their body weight, tumor weight and tumor inhibition were weighed."}, "Bel-7402 liver tumors": {"test_system": "Bel-7402 liver tumors", "test": "Transplanted tumor in nude mice, intraperitoneal, Bel-7402", "type": "in vivo, BALB/c nude mice", "conditions": "8 administrations", "protocol": "as §3"}, "Lung cancer H1299 cells": {"test_system": "Lung cancer H1299 cells", "test": "In vitro antitumor activity test (MTT), H1299", "type": "cell-based", "conditions": "Homo sapiens, NCI-H1299, 24 h", "protocol": "as §1, §2"}, "[2]": {"test_system": "13 human tumor cell lines", "test": "Average IC50 over the tumor cell lines (MTT)", "type": "cell-based", "conditions": "mean IC50 for each tumor, read-out: AverageIC50", "protocol": "as §1, §2\nThe ratio of the hemolytic concentration MHC of the compound to the mean IC50 for each tumor was referred to as the therapeutic index (TI). The safety of the compound was evaluated by the therapeutic index. The higher the therapeutic index, the greater the safety range of the compound."}, "[3]": {"test_system": "Liver cancer HepG-2 cells", "test": "In vitro antitumor activity test (MTT), HepG-2", "type": "cell-based", "conditions": "Homo sapiens, HepG2; Liver cancer HepG-2, MTT, 24 h", "protocol": "as §1, §2"}, "HepG-2 liver tumors": {"test_system": "HepG-2 liver tumors", "test": "Transplanted tumor in nude mice, intraperitoneal, HepG-2", "type": "in vivo, BALB/c nude mice", "conditions": "8 administrations", "protocol": "as §3"}, "[4]": {"test_system": "Liver cancer Bel-7402 cells", "test": "In vitro antitumor activity test (MTT), Bel-7402", "type": "cell-based", "conditions": "Homo sapiens; Liver cancer Bel-7402, MTT, 24 h", "protocol": "as §1, §2"}, "[5]": {"test": "Acute toxicity test of single administration to ICR mice", "conditions": "mouse, in vivo, intravenous, single tail vein injection, observed 7 days", "protocol": "ICR mice, 18-22 g, were raised in a common-grade animal room, fed with common feed, and ingested freely. The group distance and dose were determined after exploring the Dm and Dn of the compounds of the examples. Five concentrations of the compounds of the examples were formulated at the desired dose. The corresponding doses of drugs were injected into the tail vein according to body weight, and the blank control group was injected with normal saline. Immediately after administration, the performance and death of each animal were observed and recorded, and the possible toxic reaction or death of animals within 7 days after a single administration was observed and recorded."}, "[6]": {"test_system": "Human osteosarcoma MG63 cells", "test": "In vitro antitumor activity test (MTT), MG63", "type": "cell-based", "conditions": "MG-63, 24 h", "protocol": "as §1, §2"}, "[7]": {"test_system": "Pancreatic cancer Bxpc-3 cells", "test": "In vitro antitumor activity test (MTT), Bxpc-3", "type": "cell-based", "conditions": "Homo sapiens; Pancreatic cancer Bxpc-3, MTT, 24 h", "protocol": "as §1, §2"}, "Lung cancer H292 cells": {"test_system": "Lung cancer H292 cells", "test": "In vitro antitumor activity test (MTT), H292", "type": "cell-based", "conditions": "Homo sapiens, NCI-H292, 24 h", "protocol": "as §1, §2"}, "Lung cancer H460 cells": {"test_system": "Lung cancer H460 cells", "test": "In vitro antitumor activity test (MTT), H460", "type": "cell-based", "conditions": "Homo sapiens, NCI-H460, 24 h", "protocol": "as §1, §2"}, "[8]": {"test_system": "Cervical cancer Hela cells", "test": "In vitro antitumor activity test (MTT), Hela", "type": "cell-based", "conditions": "Homo sapiens, 24 h", "protocol": "as §1, §2"}, "[9]": {"test_system": "Breast cancer MCF-7 cells", "test": "In vitro antitumor activity test (MTT), MCF-7", "type": "cell-based", "conditions": "Homo sapiens, MCF7; Breast cancer MCF-7, MTT, 24 h", "protocol": "as §1, §2"}, "Lung cancer A549 cells": {"test_system": "Lung cancer A549 cells", "test": "In vitro antitumor activity test (MTT), A549", "type": "cell-based", "conditions": "Homo sapiens, 24 h", "protocol": "as §1, §2"}, "human red blood cells": {"test_system": "human red blood cells", "test": "Detection of hemolytic activity", "type": "cell-based", "protocol": "2-3 ml of human blood was drawn using an anticoagulant tube, thoroughly mixed, and kept at 4° C. for later use. 2 ml of blood was aspirated and added with 2-3 ml of PBS, followed by gently pipetting and centrifugation for 5 min at 1000 rpm, which was repeated 3-4 times. After the last centrifugation, PBS was aspirated, PBS was added to 40 ml (20 times the volume), and the number of blood cells at this time was 2×10^8 cells/ml. The red blood cell suspension was added to the plate (U-shaped 96-well plate), and 70 μl/well was used as a negative well. Only PBS was added to blank wells, 140 μl/well. 2 ml of the red blood cell suspension was centrifuged, PBS was discarded, 2 ml of pure water was added, mixed well, and 140 μl/well was used as a positive well. The diluted polypeptide solutions of different concentrations were added to the plate, 70 μl/well. Incubated at 37° C., 87 rpm, shaken for 2h, centrifuged for 5 min at 3000 rpm. The OD value measured by microplate reader: After centrifugation, 90 μl of supernatant was drawn and transferred to a flat-bottom 96-well plate, and the OD value at 578 nm was measured by microplate reader. ODtest-OD negative >0.1 (the first concentration that met the conditions was MHC)."}, "[10]": {"conditions": "SK-hep1, 5 mg/kg i.p. once every 3 days"}, "[11]": {"conditions": "Bel-7402, 5 mg/kg i.p. once every 3 days"}, "[12]": {"conditions": "HepG-2, 5 mg/kg i.p. once every 3 days"}},
  "note": "pIC50: −log10 of the molar value. Marks after values point to notes of the source that are not given here.",
  "data": [
    {"smiles": "CC1(C)CC(NC(=O)C(Cc2ccc(-c3ccccc3)cc2)NC(=O)Cc2ccccc2Nc2c(Cl)cccc2Cl)CC(C)(C)N1", "note": "(centres unmarked) [PL-AC-203]", "values": [
      {"measurement": "pIC50", "setting": "Melanoma B16 cells", "result": 7.52},
      {"measurement": "pIC50", "setting": "[1]", "result": 7.65},
      {"measurement": "pIC50", "setting": "Colon cancer HT29 cells", "result": 7.43},
      {"measurement": "Tumor inhibition rate", "setting": "SK-hep1 liver tumors; [10]", "result": "^ΔΔ68.3** %"},
      {"measurement": "Tumor weight", "setting": "SK-hep1 liver tumors; [10]", "result": "355.2 ± 1.2", "unit": "mg"},
      {"measurement": "Body Weight After administration", "setting": "SK-hep1 liver tumors; SK-hep1 tumor-bearing BALB/c mice, 5 mg/kg i.p. once every 3 days", "result": "24.7 ± 0.5", "unit": "g"},
      {"measurement": "Tumor inhibition rate", "setting": "Bel-7402 liver tumors; [11]", "result": "58.7** %"},
      {"measurement": "Tumor weight", "setting": "Bel-7402 liver tumors; [11]", "result": "327.4 ± 10.4", "unit": "mg"},
      {"measurement": "Body Weight After administration", "setting": "Bel-7402 liver tumors; Bel-7402 tumor-bearing BALB/c mice, 5 mg/kg i.p. once every 3 days", "result": "24.1 ± 0.9", "unit": "g"},
      {"measurement": "pIC50", "setting": "Lung cancer H1299 cells", "result": 7.69},
      {"measurement": "pIC50", "setting": "[2]", "result": 7.56},
      {"measurement": "pIC50", "setting": "[3]", "result": 7.79},
      {"measurement": "Tumor inhibition rate", "setting": "HepG-2 liver tumors; [12]", "result": "^ΔΔ72.4** %"},
      {"measurement": "Tumor weight", "setting": "HepG-2 liver tumors; [12]", "result": "455.8 ± 9.9", "unit": "mg"},
      {"measurement": "Body Weight After administration", "setting": "HepG-2 liver tumors; HepG-2 tumor-bearing BALB/c mice, 5 mg/kg i.p. once every 3 days", "result": "22.7 ± 1.7", "unit": "g"},
      {"measurement": "pIC50", "setting": "[4]", "result": 7.34},
      {"measurement": "LD50 at 7 days", "setting": "[5]", "result": 39.8, "unit": "mg/kg"},
      {"measurement": "pIC50", "setting": "[6]", "result": 7.58},
      {"measurement": "pIC50", "setting": "[7]", "result": 7.31},
      {"measurement": "pIC50", "setting": "Lung cancer H292 cells", "result": 7.60},
      {"measurement": "pIC50", "setting": "Lung cancer H460 cells", "result": 7.68},
      {"measurement": "pIC50", "setting": "[8]", "result": 7.70},
      {"measurement": "pIC50", "setting": "[9]", "result": 7.64},
      {"measurement": "pIC50", "setting": "Lung cancer A549 cells", "result": 7.62},
      {"measurement": "MHC", "setting": "human red blood cells; hemolytic concentration, in nM", "result": "3e+06", "unit": "nM"},
      {"measurement": "MHC", "setting": "human red blood cells; human red blood cells, 37° C., 2h, first concentration with ODtest-OD negative >0.1", "result": 2000, "unit": "µg/mL"}
    ]}
  ]
}
